According to article PMC7413254 (Nature Communications, 2020):
Like-named read-outs stand apart in the source and are kept apart here.

How the values were obtained:
PfCRT^3D7 = PfCRT^3D7 (Plasmodium falciparum, UniProt Q8IBZ9); assay: cell-based; assay type: cell-based; conditions: total [3H]CQ transport; for inhibition at 500 µM: [test solute] = 0.5 mM; for inhibition at 1000 µM: [test solute] = 1 mM; for inhibition at 2000 µM: [test solute] = 2 mM
Summary of the method: (§1)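 Assay buffer ND96 (10 mM MES, 10 mM Tris-base) held at pH 5.5 to mimic vacuole lumen; uptake measured inward from this acidic medium over 1.5 h at 27.5 °C.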

non-expressing oocytes = assay: cells; assay type: cell-based, Xenopus laevis; conditions: Xenopus laevis, total [3H]CQ transport; for inhibition at 500 µM: [test solute] = 0.5 mM; for inhibition at 1000 µM: [test solute] = 1 mM; for inhibition at 2000 µM: [test solute] = 2 mM
Summary of the method: as §1

PfCRT = assay: Test of solutes as potential co-substrates for influx of VF-6 via PfCRT into the oocyte; assay type: cell-based, Plasmodium falciparum; parameters: key: X: Compounds that have been tested as potential co-substrates but are not required for influx of VF-6 via PfCRT into the oocyte; conditions: X = tested
PfCRT^Dd2 = PfCRT^Dd2 (Plasmodium falciparum, UniProt Q9N623, A220S/I356T/K76T/M74I/N326S/N75E/Q271E/R371I); assay: [3H]CQ uptake into Xenopus oocytes, cis-inhibition by unlabelled solute; assay type: cell-based
Summary of the method: as §1

PfCRT^Ecu1110 = PfCRT^Ecu1110 (Plasmodium falciparum, UniProt Q9N623, A220S/I356L/K76T/N326D); assay: as above; assay type: cell-based
Summary of the method: as §1

[1] = PfCRT3D7 oocytes, normalised to the oocyte type control, read-out: Uptake of [3H]CQ (% PfCRT3D7 control), cis-inhibition
[2] = mean ± SEM, SEM, read-out: Uptake of [3H]CQ (% PfCRTDd2 control), cis-inhibition, PfCRT3D7
[3] = Oocyte, mean ± SEM, SEM, read-out: Uptake of [3H]CQ (% PfCRTDd2 control), cis-inhibition, non-expressing oocytes
[4] = non-expressing oocytes, normalised to the oocyte type control, read-out: Uptake of [3H]CQ (% non-expressing oocyte control), cis-inhibition
[5] = read-out: PfCRT-mediated [3H]CQ transport, cis-inhibition (% PfCRTDd2 control)
[6] = read-out: Uptake of [3H]CQ (% PfCRTDd2 control), cis-inhibition
[7] = read-out: Uptake of [3H]CQ (% PfCRTDd2 control), cis-inhibition, PfCRTDd2, SEM
[8] = read-out: [3H]CQ transport (% PfCRTDd2 control), cis-inhibition, PfCRTDd2, SEM
[9] = read-out: PfCRT-mediated [3H]CQ transport, cis-inhibition (% PfCRTEcu1110 control)
[10] = read-out: Uptake of [3H]CQ (% PfCRTDd2 control), cis-inhibition, PfCRTEcu1110, SEM
[11] = read-out: Uptake of [3H]CQ (% PfCRTEcu1110 control), cis-inhibition

PfCRT^3D7, sequence (Q8IBZ9 59-398): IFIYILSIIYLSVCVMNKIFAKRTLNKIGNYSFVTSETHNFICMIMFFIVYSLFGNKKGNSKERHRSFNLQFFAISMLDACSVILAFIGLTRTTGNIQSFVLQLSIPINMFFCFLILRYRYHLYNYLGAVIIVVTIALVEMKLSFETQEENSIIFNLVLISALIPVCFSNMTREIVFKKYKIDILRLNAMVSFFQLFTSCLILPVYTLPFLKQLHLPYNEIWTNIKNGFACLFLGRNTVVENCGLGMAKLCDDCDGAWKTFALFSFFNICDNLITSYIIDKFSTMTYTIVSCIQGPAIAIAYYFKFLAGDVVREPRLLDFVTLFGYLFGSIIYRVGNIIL
PfCRT^Dd2, sequence (Q9N623 whole entry A220S/I356T/K76T/M74I/N326S/N75E/Q271E/R371I): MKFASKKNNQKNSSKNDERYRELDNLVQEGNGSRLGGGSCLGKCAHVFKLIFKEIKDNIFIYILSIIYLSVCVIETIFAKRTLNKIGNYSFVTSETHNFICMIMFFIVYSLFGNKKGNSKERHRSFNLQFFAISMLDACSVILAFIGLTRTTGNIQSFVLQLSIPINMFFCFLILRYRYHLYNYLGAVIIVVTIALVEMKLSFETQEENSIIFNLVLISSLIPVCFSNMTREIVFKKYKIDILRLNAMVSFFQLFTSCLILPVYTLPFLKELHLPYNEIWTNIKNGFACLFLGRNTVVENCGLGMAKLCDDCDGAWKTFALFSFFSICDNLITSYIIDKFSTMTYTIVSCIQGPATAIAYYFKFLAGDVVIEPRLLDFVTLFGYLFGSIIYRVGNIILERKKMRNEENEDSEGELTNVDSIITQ
PfCRT^Ecu1110, sequence (Q9N623 whole entry A220S/I356L/K76T/N326D): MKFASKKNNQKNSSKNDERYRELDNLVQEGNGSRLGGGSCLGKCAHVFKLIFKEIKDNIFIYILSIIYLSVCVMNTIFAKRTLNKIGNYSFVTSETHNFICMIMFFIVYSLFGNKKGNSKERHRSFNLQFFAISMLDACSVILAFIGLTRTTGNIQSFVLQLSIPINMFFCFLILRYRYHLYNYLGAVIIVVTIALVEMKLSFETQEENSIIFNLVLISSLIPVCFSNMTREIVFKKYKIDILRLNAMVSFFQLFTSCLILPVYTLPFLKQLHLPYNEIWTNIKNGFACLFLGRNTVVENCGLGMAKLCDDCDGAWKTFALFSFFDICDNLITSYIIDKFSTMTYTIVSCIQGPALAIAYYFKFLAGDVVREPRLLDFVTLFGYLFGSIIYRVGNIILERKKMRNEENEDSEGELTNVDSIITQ

Question: Which results are given for `CC(C)[C@H](N)C(=O)O` [L-valine]?
Answer: inhibition at 500 µM (PfCRT^3D7; [1]): 99 ± 3.6%; inhibition at 1000 µM (PfCRT^3D7; [1]): 99 ± 3.9%; inhibition at 2000 µM (PfCRT^3D7; [1]): 100 ± 5.5%; inhibition at 500 µM (PfCRT^3D7; [2]): 3.1 ± 0.07%; inhibition at 1000 µM (PfCRT^3D7; [2]): 3.4 ± 0.01%; inhibition at 2000 µM (PfCRT^3D7; [2]): 3.4 ± 0.04%; inhibition at 500 µM (non-expressing oocytes; [3]): 2.7 ± 0.05%; inhibition at 1000 µM (non-expressing oocytes; [3]): 2.5 ± 0.04%; inhibition at 2000 µM (non-expressing oocytes; [3]): 2.8 ± 0.07%; inhibition at 500 µM (non-expressing oocytes; [4]): 100 ± 4.8%; inhibition at 1000 µM (non-expressing oocytes; [4]): 101 ± 6.2%; inhibition at 2000 µM (non-expressing oocytes; [4]): 99 ± 6.2%; Tested as potential co-substrate but not required for influx of VF-6 via PfCRT into the oocyte (PfCRT): X; inhibition at 500 µM (PfCRT^Dd2; [5]): 98 ± 3.6%; inhibition at 1000 µM (PfCRT^Dd2; [5]): 98 ± 4.6%; inhibition at 2000 µM (PfCRT^Dd2; [5]): 93 ± 4.1%; inhibition at 500 µM (PfCRT^Dd2; [6]): 100 ± 2.6%; inhibition at 1000 µM (PfCRT^Dd2; [6]): 100 ± 2.2%; inhibition at 500 µM (PfCRT^Dd2; [7]): 100 ± 2.6%; inhibition at 1000 µM (PfCRT^Dd2; [7]): 100 ± 2.2%; inhibition at 2000 µM (PfCRT^Dd2; [7]): 95 ± 1.4%; inhibition at 500 µM (PfCRT^Dd2; [8]): 98 ± 3.6%; inhibition at 1000 µM (PfCRT^Dd2; [8]): 98 ± 4.6%; inhibition at 500 µM (PfCRT^Ecu1110; [9]): 98 ± 2.5%; inhibition at 1000 µM (PfCRT^Ecu1110; [9]): 95 ± 2.6%; inhibition at 2000 µM (PfCRT^Ecu1110; [9]): 94 ± 2.5%; inhibition at 500 µM (PfCRT^Ecu1110; [10]): 33 ± 1%; inhibition at 1000 µM (PfCRT^Ecu1110; [10]): 32 ± 1.3%; inhibition at 2000 µM (PfCRT^Ecu1110; [10]): 31 ± 1.6%; inhibition at 500 µM (PfCRT^Ecu1110; [11]): 100 ± 1.5%; inhibition at 1000 µM (PfCRT^Ecu1110; [11]): 97 ± 1.7%
